Experimental data taken from US20230064978A1, “CYCLIC PEPTIDE RECEPTOR LANTHIONINE SYNTHETASE C-LIKE PROTEIN (LANCL) AND USES THEREOF” (LATERAL IP PTY LTD, priority 2019, published 2023).
Bridges are numbered along the chain shown (N, C = ends). Where no end group is shown, it is not given here.

Experiments:
A549 cells = assay: Confocal imaging of LAT9991F-PAL binding and LANCL1 co-localization, with siRNA knockdown and competitors, in A549 cells; assay type: cell-based; details: for Competition of LAT9991F-PAL binding by excess competitor: competitor 25 μM
Protocol: (§1) A photoactivatable analog of LAT8881 (LAT9991F (SEQ ID NO:13)-PAL), was used to conduct the experiments. A549 or NCI-H358 cells were treated with LAT9991F-PAL at 2.5 μM during 30 minutes. Fluorescent signal was recorded after that LAT9991F-PAL was immobilized on its target(s) site by UV-crosslinking and the LAT9991F-PAL-target complexes were labeled with the green-fluorescent Alexa Fluor 488 alkyne dye by click-chemistry. Control cells were treated with the vehicle, dimethyl sulfoxide (DMSO), and with LAT9991F-PAL in combination with a large excess of the parent drug LAT8881 or other competitors, GSH, NSC61610 or ABA to evaluate, respectively, the non-specific fluorescent background and the specificity of the staining. For colocalization experiments, subsequently, immunofluorescence staining with an anti-LANCL1 or LANCL2 antibodies and an Alexa 568 (red) conjugated secondary antibody was performed. Images stacks of cells labeled with probes were collected and evaluated for the degree of colocalization of LAT9991F-PAL-target complexes and LANCL1 or LANCL2 using either the Measure Colocalization plugin in Metamorph or the JACoP plugin in ImageJ).
(§2) A549 or NCI-H358 cells (ATCC CCL-185 and ATCC CRL-5807, respectively) were cultured in appropriate medium containing 10% heat-inactivated FBS (Dutscher, #SV30160-036), 1% penicillin/streptomycin (Gibco, #15140-122) and maintained in a humidified 37° C. incubator with 5% CO2.
(§3) LAT9991F-PAL was dissolved in DMSO to make a 10 mM stock solution. Intermediate solutions at 25 μM and 2.5 μM were made in the culture medium from the 10 mM stock solutions of LAT8881 and LAT9991F-PAL, respectively. A two-fold dilution into PBS of each intermediate solution was used for cell treatment. A stock solution at 10 mM was prepared for the other competitors as GSH, NSC61610 and ABA. A final concentration at 25 μM was used for the assay.
(§4) A549 or NCI-H358 cells were seeded onto ibidiTreat Polymer Coverslips (Ibidi, #80826) at 2.5×10^5 cells/cm^2 in 200 μl of complete medium. After 24 hours, the medium was removed and cells were washed with PBS (Gibco, #10010049) and then pre-treated with the Taxol at 1 μM for 3 hours or with H2O2 25 μM for 2 hours. Cells were washed twice with PBS. Induced stress cells or control cells were then exposed to LAT9991F-PAL (2.5 μM) in PBS for 30 minutes, in the presence or absence of LAT8881 (25 μM), or the other compounds used as a competitor, and pre-incubated 10 minutes. After treatment, cells were washed with cold PBS and UV-irradiated (365 nm) in PBS for 20 min. After fixation with 4% paraformaldehyde and permeabilization (0.5% Triton/PBS) (Image-iT™ Fixation/Permeabilization Kit, ThermoFisher, #R37602), the bioorthogonal reaction with Alexa Fluor 488 Alkyne (1 μM) (ThermoFisher, #A10267) was performed at 25° C. using the Click-iT™ Cell Reaction Buffer Kit (ThermoFisher, #C10269) according to the manufacturer protocol. After click reaction, cells were washed twice with PBS, blocked with 3% BSA in PBS for 1 hour and stained with Hoechst 33342 dye (ThermoFisher, #H1399).
(§5) For colocalization experiments, cells were further incubated overnight at 4° C. with a mouse anti-LanCL1 antibody (Invitrogen, PAS-57-107) (dilution 1:1000) or LanCL2 (Atlas Antibodies HPA019711) (dilution 1:1000) in 3% BSA in PBS, washed twice with PBS, and then incubated respectively with a goat anti-mouse […] (Molecular Probes, #A21467) (dilution 1:800) for 1 h in 3% BSA in PBS. After three further washing steps with PBS, cells were embedded in Ibidi Mounting Medium (ibidi, #50001). The specimens were kept at 4° C. in the dark until analysis.
Images were acquired on an Axiovert200M (Zeiss) microscope using a CSU-W1 Yokogawa confocal unit. This microscope is equipped with a plan Apochromat X40 dry objective numerical aperture (NA) 0.95 and a Neofluar X100 oil immersion objective NA 1.45. Images were capture with an EMCCD camera (Prior, ProEM 1024×1024).

NCI-H358 cells = assay: Confocal imaging of LAT9991F-PAL binding and LANCL1 co-localization, with siRNA knockdown and competitors, in NCI-H358 cells; assay type: cell-based; details: for Competition of LAT9991F-PAL binding by excess competitor: competitor 25 μM
Protocol: as §1, §2, §3
ibidiTreat Polymer Coverslips (Ibidi, #80826) were coated with serum during 1 hour at 37° C., followed by Laminin (100 μg\ml) (incubation for 1 hour at 37° C.) for NCI-H358 cells.
as §4, §5
Images were acquired on an Axiovert200M (Zeiss) microscope using a CSU-W1 Yokogawa confocal unit.

human recombinant LANCL1 = target: T1, human recombinant LANCL1 (Homo sapiens, UniProt O43813); assay: In-gel fluorescence: photolabelling of recombinant LANCL1 with PAL probes, with or without excess competitor; assay type: binding; details: for Inhibition of LAT9991-PAL binding to recombinant LANCL1 by excess competitor: probe LAT9991-PAL, excess unlabelled competitor
T1 construct: purchased ABCAM ab181923; host or cells: E. coli
Protocol: The in-gel fluorescence protocol can be briefly described as follows:
1. LANCL1 Labelling, Assay on 96 Well Plate, Volume of the Reaction 40 μl in PBS
3 μg/well of human recombinant LANCL1 (ABCAM catalog no. ab181923, 1 mg/ml; expressed in E. Coli and incorporating an N-terminal 23 amino acid hexaHis tag; UniProtKB/Swiss-Prot Accession no: O43813);
• Vehicle DMSO • ±LAT8881 (a cyclic peptide fragment of human growth hormone; SEQ ID NO:1) • SEQ ID NO:1) as competitor @ 25, 50, 100 or 200 μM, pre-incubation 10 min, 4 μl of a stock solution 10-fold concentrated • ±LAT9991-PAL, LAT7771-PAL or LAT9993-PAL probes @ 1 μM, incubation 30 min at room temperature on a plate agitator (protected from light), 4 μl of a stock solution @10 μM
• Irradiation @ 365 nm 20 min (4° C., on a support containing ice) Transfer 40 μl in a clean Eppendorf tube
• Reduction: DTT 10 mM, 30 min @ 56° C. • Alkylation: Iodoacetamide 30 mM, 45 min @ RT Click-iT AzideTamra of 60 μL samples
• Acetone Precipitation −20° C. ON • Dry pellet resuspended in 30 μL 1% SDS in 50 mM Tris-HCl pH 7.5 • Photolabeled LANCL1 was tagged with tetramethylrhodamine (TAMRA) azide @100 μM TAMRA azide by copper click chemistry using the Click-iT Protein Reaction Buffer Kit (ThermoFisher Scientific) during 30 minutes • Precipitation using the chloroform-methanol method, pellet was air-dried for 10 min at room temperature, resuspended in 30 μL SDS loading buffer (Bio Rad's XT Sample Buffer containing 2.5% v/v 2-mercaptoethanol) and heated (60° C., 30 min)
• SDS-PAGE (4-15% Criterion™ TGX Stain-Free™ Protein Gel, Bio Rad) • Analyzed by in-gel fluorescence scanning using a ChemiDoc™ MP Imaging System (Bio Rad) with a green LED light as an excitation source and a BP600/20 nm emission filter

[1] = system: tissue homogenates of nerve from neuropathic animals; assay: PAL cross-linking to nerve tissue homogenates and gel separation; assay type: binding
Excerpt: Using a ligand driven approach, the present inventors utilized the photo-activatable cross-linking PAL from Evotec A.G. (Photo-Activated Labelling) technology that derivatizes the active cyclic peptides to allow UV-induced cross-linking to binding targets (described herein as peptide/SEQ ID NO:X-PAL). This allows subsequent detection in cells, gels of tissue isolates or in pull-down of the peptide/target complex for sequencing by mass spectroscopy (PALMS).
LAT9991-PAL was cross-linked to tissue homogenates of nerve from neuropathic animals.

T1 sequence (O43813 with tags, fused parts or gaps): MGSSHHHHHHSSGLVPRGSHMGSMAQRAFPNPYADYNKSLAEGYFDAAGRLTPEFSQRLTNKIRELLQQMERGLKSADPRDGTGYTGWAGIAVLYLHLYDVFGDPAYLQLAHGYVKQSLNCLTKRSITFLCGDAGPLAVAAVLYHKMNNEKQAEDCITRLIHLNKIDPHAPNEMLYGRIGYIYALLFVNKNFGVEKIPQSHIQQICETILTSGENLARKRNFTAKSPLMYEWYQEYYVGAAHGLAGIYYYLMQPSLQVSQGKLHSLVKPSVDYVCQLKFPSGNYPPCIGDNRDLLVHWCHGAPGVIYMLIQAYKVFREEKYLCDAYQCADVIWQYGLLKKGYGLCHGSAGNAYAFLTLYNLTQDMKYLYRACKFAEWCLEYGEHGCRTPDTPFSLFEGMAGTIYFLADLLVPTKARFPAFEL

Molecule: O=C(Nc1cccc(-c2nc3ccccc3[nH]2)c1)c1ccc(C(=O)Nc2cccc(-c3nc4ccccc4[nH]3)c2)cc1 [NSC61610, reference compound]
- Competition of LAT9991F-PAL binding by excess competitor (A549 cells; SiLANCL1 A549 cells): strongly competed off
- Competition of LAT9991F-PAL binding by excess competitor (NCI-H358 cells; SiLANCL1 NCI-H358 cells): strongly competed off

Molecule: N[C@@H](CCC(=O)N[C@@H](CS)C(=O)NCC(=O)O)C(=O)O [glutathione, reference compound]
- Competition of LAT9991F-PAL binding by excess competitor (A549 cells; SiLANCL1 A549 cells): partially competed off
- Competition of LAT9991F-PAL binding by excess competitor (NCI-H358 cells; SiLANCL1 NCI-H358 cells): partially competed off

Molecule: CRIIHNNNC [LAT7771]
- Inhibition of LAT9991-PAL binding to recombinant LANCL1 by excess competitor (human recombinant LANCL1): inhibited
- Competition of LAT9991F-PAL binding by excess competitor (A549 cells; SiLANCL1 A549 cells): partially competed off
- Competition of LAT9991F-PAL binding by excess competitor (NCI-H358 cells; SiLANCL1 NCI-H358 cells): partially competed off

Molecule: LAT9991F-PAL: A photoactivatable analog of LAT8881 (LAT9991F (SEQ ID NO:13)-PAL) (CRSVEGSCGF; disulfide 1-8 (inferred); also: PAL cross-linking group, site not given here)
- Co-localization of LANCL1 and probe binding (A549 cells; A549 cells, confocal microscopy, probe 2.5 μM): co-localization
- Co-localization of LANCL1 and probe after siRNA knockdown of LANCL1 (A549 cells; SiLANCL1 A549 cells): lost
- Level of probe binding in siLANCL1 cells following induced oxidative stress (A549 cells; siLANCL1 A549 cells, H2O2 25 μM 2 hours or Taxol 1 μM 3 hours, vs SiControl): less intense as compared to control cells
- Co-localization of LANCL1 and probe binding (NCI-H358 cells; NCI-H358 cells, confocal microscopy, probe 2.5 μM): co-localization
- Co-localization of LANCL1 and probe after siRNA knockdown of LANCL1 (NCI-H358 cells; SiLANCL1 NCI-H358 cells): lost
- Level of probe binding in siLANCL1 cells following stress (NCI-H358 cells; siLANCL1 NCI-H358 cells, vs control cells): less intense as compared to control cells

Molecule: LAT9993S-PAL: LAT9993S (SEQ ID NO:44) derivatized with the PAL photo-activatable cross-linking group (SCRSRPVESSCS; disulfide 2-11 (inferred); also: ['PAL photo-activatable cross-linking group, structure and site not given here'])
- Binding of PAL probe to recombinant LANCL1 (human recombinant LANCL1; in-gel fluorescence after UV (365 nm) cross-linking): bound to recombinant LANCL1
- Cross-linking of PAL probe to tissue homogenates of nerve from neuropathic animals [1]: shown to cross-link
- Molecular weight ranges of targets stained after gel separation ([1]; PAL probe cross-linked to nerve homogenates): ˜12-15 kD, ˜37 kD and ˜50 kD

Molecule: SCRSRPVESSCS [LAT9993S]
- Inhibition of LAT9991-PAL binding to recombinant LANCL1 by excess competitor (human recombinant LANCL1): inhibited
- Competition of LAT9991F-PAL binding by excess competitor (A549 cells; SiLANCL1 A549 cells): partially competed off
- Competition of LAT9991F-PAL binding by excess competitor (NCI-H358 cells; SiLANCL1 NCI-H358 cells): partially competed off
